Results as given in patent US10098888B2, “Substituted benzene compounds” (Epizyme, Inc., priority 2012, dated 2018).
pIC50, pKi: −log10 of the molar value. Like-named read-outs stand apart in the source and are kept apart here.

How the values were obtained:
WSU-DLCL2 cells = assay: Cell Proliferation Analysis (WSU-DLCL2, Cell Titer Glo); format: cell-based; conditions: Homo sapiens, WSUDLCL2, 6 days
CYP3A4/5 = assay: Time-Dependent Inactivation (TDI) assessment of CYP3A4/5; format: in vitro ADME, human; conditions: for inactivation of CYP3A4/5 (conclusion in words): using midazolam as probe
[1] = system: human cytochromes P450 (CYP); assay: Assessment of CYP inhibition, overall conclusion on reversible inhibition; conditions: human liver microsomes
CYP1A = assay: CYP induction in cryopreserved human hepatocytes, CYP1A; conditions: 48 hours, positive control β-naphthoflavone
[2] = Tolerability in Karpas-422 xenograft tumor bearing mice (body weight); format: in vivo; conditions: Karpas-422 xenograft mice, p.o. BID, up to 28 days
Procedure: (§1) The animals were fed ad libitum water (reverse osmosis 1 ppm Cl) and NIH 31 Modified and Irradiated Lab Diet® consisting of 18.0% crude protein, 5.0% crude fat, and 5.0% crude fiber. The mice were housed on irradiated Enrich-o'cobs™ bedding in static microisolators on a 12-hour light cycle at 20-22° C. (68-72° F.) and 40-60% humidity. Alf procedures complied with the recommendations of the Guide for Care and Use of Laboratory Animals with respect to restraint, husbandry, surgical procedures, feed and fluid regulation, and veterinary care.
Test compounds were stored at room temperature and protected from light. On each treatment day, fresh compound formulations were prepared by suspending the powders in 0.5% sodium carboxymethylcellulose (NaCMC) and 0.1% Tween® 80 in deionized water. […]
(§2) Mice were treated at compound doses ranging from 62.5-500 mg/kg on a BID (2 times a day every 12 h) schedule for various amounts of days by oral gavage. Each dose was delivered in a volume of 0.2 mL/20 g mouse (10 mL/kg), and adjusted for the last recorded weight of individual animals. […]
In order to test whether a compound could induce an anti-tumor effect in vivo, Karpas-422 xenograft tumor bearing mice were treated with a compound at, e.g., 62.5, 125, 250, or 500 mg/kg BID for 28 days. […] The tumor growth over the treatment course of 28 days for vehicle and test compound treated groups was measured.

CYP2B6 = assay: CYP induction in cryopreserved human hepatocytes, CYP2B6; conditions: 1 μm, 48 hours, positive control phenobarbital
Karpas-422 xenograft = assay: Efficacy study in Karpas-422 xenograft model; format: in vivo; conditions: mice, p.o. BID, up to 28 days
Procedure: as §1
Human lymphoma cell lines line were obtained from different sources (ATCC, DSMZ), e.g., Karpas-422 obtained from DSMZ. […]
Human lymphoma cell lines, e.g., Karpas-422 cells, were harvested during mid-log phase growth, and re-suspended in […] base media and 50% Matrigel™ (BD Biosciences) (RPMI:Matrigel=1:1). […] Tumor size, in mm^3, was calculated from: […]
as §2
Treatment efficacy was determined on the last treatment day, MTV(n), the median tumor volume for the number of animals, n, evaluable on the last day, was determined for each group. […]

[3] = pH 7.4, probe testosterone, time-dependent inactivation of CYP3A4/5, human liver microsomes, read-out: KI

Row | Compound | pIC50 (WSU-DLCL2 cells) | pKi (CYP3A4/5; [3]) | inactivation of CYP3A4/5 (conclusion in words) (CYP3A4/5) | reversible CYP inhibition (conclusion in words) [1] | CYP1A % Positive Control (CYP1A; 1 μm) | CYP1A % Positive Control (CYP1A; 10 μm) | tolerability [2] | CYP2B6 % Positive Control (CYP2B6) | antitumor effect in Karpas-422 xenograft model (Karpas-422 xenograft) | pKi (CYP3A4/5; human, human liver microsomes, pH 7.4, time-dependent inactivation of CYP3A4/5, footnote ** not given, read-out: KI (value in parentheses marked **))
1 | CCN(c1cc(C#CCN2CCOCC2)cc(C(=O)NCc2c(C)cc(C)[nH]c2=O)c1C)[C@H]1CC[C@H](N(C)CCOC)CC1 [Compound 2, N-((4,6-dimethyl-2-oxo-1,2-dihydropyridin-3-yl)methyl)-3-(ethyl((trans)-4-((2-methoxyethyl)(methyl)amino)cyclohexyl)amino)-2-methyl-5-(3-morpholinoprop-1-yn-1-yl)benzamide] | 6.41 | 4.65 | time-, concentration-, and NADPII-dependent inactivation of CYP3A4/5 | no significant reversible inhibition | – | – | – | – | – | –
2 | CCN(c1cc(C#CC2CCN(C)CC2)cc(C(=O)NCc2c(C)cc(C)[nH]c2=O)c1C)C1CCOCC1 [Compound 105, N-((4,6-Dimethyl-2-oxo-1,2-dihydropyridin-3-yl)methyl)-3-(ethyl(tetrahydro-2H-pyran-4-yl)amino)-2-methyl-5-((1-methylpiperidin-4-yl)ethynyl)benzamide] | – | 4.99 | time-, concentration-, and NADPII-dependent inactivation of CYP3A4/5 | potentially significant inhibition of CYP2D6 and CYP3A4 (midazolam) | 3.0% | 4.4% | – | – | – | –
3 | CCN(c1cc(-c2ccc(OCCOC)cc2)cc(C(=O)NCc2c(C)cc(C)[nH]c2=O)c1C)[C@H]1CC[C@H](N(C)C)CC1 [Compound 1, N-((4,6-dimethyl-2-oxo-1,2-dihydropyridin-3-yl)methyl)-5-(((trans)-4-(dimethytamino)-cyclohexyl)(ethyl)-amino)-4′-(2-methoxyethoxy)-4-methyl-[1,1′-biphenyl]-3-carboxamide] | – | 5.19 | time-, concentration-, and NADPII-dependent inactivation of CYP3A4/5 | no significant reversible inhibition | 2.8% | 3.0% | well tolerated | 18.0% | tumor stasis and regression | 5.48
